Source: US20150010928A1, “MEANS AND METHODS FOR ASSESSING AN ENDOCRINE DISEASE OR DISORDER” (priority 2012, published 2015)
Marks after values point to notes of the source that are not given here.

Tested on: male rats
Assay: Plasma metabolite profiling (GC-MS, LC-MS, SPE-LC-MS) in male rats dosed once daily over 28 days (OECD 407)
Format: in vivo, rat
Design: key to erythro-Sphingoside (d18:1) / Tricosanoic acid (C23:0) / beta-Sitosterol / Tryptophan: ratio of treated group mean to untreated control group mean
Method: Each dose group in the studies consisted of five rats per sex. Additional groups of each 5 male and female animals served as controls. […] All animals of the animal population were kept under the same constant temperature (20-24±3° C.) and the same constant humidity (30-70%). The animals of the animal population were fed ad libitum. The food to be used was essentially free of chemical or microbial contaminants. Drinking water was also offered ad libitum. Accordingly, the water was free of chemical and microbial contaminants as laid down in the European Drinking Water Directive 98/83/EG. The illumination period was 12 hours light followed by 12 hours darkness (12 hours light, from 6:00 to 18:00, and 12 hours darkness, from 18:00 to 6:00). […] The test substances (compounds) in the Tables 1 to 17 below were dosed and administered as described in the Table 18.
In the morning of day 7, 14, and 28, blood was taken from the retroorbital venous plexus from fasted anaesthetized animals. From each animal, 1 ml of blood was collected with EDTA as anticoagulant. The samples were centrifuged for generation of plasma. All plasma samples were covered with a N2 atmosphere and then stored at −80° C. until analysis.
For mass spectrometry-based metabolite profiling analyses plasma samples were extracted and a polar and a non-polar (lipid) fraction was obtained. For GC-MS analysis, the non-polar fraction was treated with methanol under acidic conditions to yield the fatty acid methyl esters. Both fractions were further derivatised with O-methyl-hydroxyamine hydrochloride and pyridine to convert Oxogroups to O-methyloximes and subsequently with a silylating agent before analysis. In LC-MS analysis, both fractions were reconstituted in appropriate solvent mixtures. HPLC was performed by gradient elution on reversed phase separation columns. Mass spectrometric detection which allows target and high sensitivity MRM (Multiple Reaction Monitoring) profiling in parallel to a full screen analysis was applied as described in WO2003073464.
Steroids and their metabolites were measured by online SPE-LC-MS (Solid phase extraction-LC-MS).
Following comprehensive analytical validation steps, the data for each analyte were normalized against data from pool samples. These samples were run in parallel through the whole process to account for process variability. The significance of treatment group values specific for sex, treatmentduration and metabolite was determined by comparing means of the treated groups to the means of the respective untreated control groups using WELCH-test and quantified with treatment ratios versus control and p-values.
The identification of the most important biomarkers per toxicity pattern was done by a ranking of the analytes in the tables below. Therefore the metabolic changes in reference treatments of a given pattern (shown in the table) were compared with changes of the same metabolite in other unrelated treatments. […] The maximum absolute value of the respective TVALUE was taken to indicate the most important metabolite for the pattern.

[1] = male rats, plasma, high dose, day 7
[2] = male rats, plasma, high dose, day 14
[3] = male rats, plasma, high dose, day 28
[4] = male rats, plasma, low dose, day 7
[5] = male rats, plasma, low dose, day 14
[6] = male rats, plasma, low dose, day 28

Cn1cc[nH]c1=S [Methimazole]
3-O-Methylsphingosine (d18:1) (m7, high dose, Table 10a): 3.59 *
5-O-Methylsphingosine (d18:1) (m7, high dose, Table 10a): 3.41 *
Cysteine (m7, high dose, Table 10a): 0.74^
Lignoceric acid (C24:0) (m7, high dose, Table 10a): 2.12 *
Nervonic acid (C24:cis[15]1) (m7, high dose, Table 10a): 2.59 *
Oleic acid (C18:cis[9]1) (m7, high dose, Table 10a): 0.95^
Stearic acid (C18:0) (m7, high dose, Table 10a): 1.34 *
alpha-Tocopherol (m7, high dose, Table 10a): 1.76 *
erythro-Sphingoside (d18:1) (m7, high dose, Table 10a): 2.91 *
threo-Sphingosine (d18:1) (m7, high dose, Table 10a): 2.91 *
Oleic acid (C18:cis[9]1) (m7, high dose, Table 10b): 0.95^
Thyroxine (T4) (m7, high dose, Table 10b): 0.11 *
trans-4-Hydroxyproline (m7, high dose, Table 10b): 0.85 *
3-O-Methylsphingosine (d18:1) (m14, high dose, Table 10a): 3.98 *
5-O-Methylsphingosine (d18:1) (m14, high dose, Table 10a): 4.75 *
Cysteine (m14, high dose, Table 10a): 1.25
Lignoceric acid (C24:0) (m14, high dose, Table 10a): 2.82 *
Nervonic acid (C24:cis[15]1) (m14, high dose, Table 10a): 3 *
Oleic acid (C18:cis[9]1) (m14, high dose, Table 10a): 0.97
Stearic acid (C18:0) (m14, high dose, Table 10a): 1.4 *
alpha-Tocopherol (m14, high dose, Table 10a): 2.66 *
erythro-Sphingoside (d18:1) (m14, high dose, Table 10a): 3.71 *
threo-Sphingosine (d18:1) (m14, high dose, Table 10a): 3.72 *
Oleic acid (C18:cis[9]1) (m14, high dose, Table 10b): 0.97^
Thyroxine (T4) (m14, high dose, Table 10b): 0.04 *
trans-4-Hydroxyproline (m14, high dose, Table 10b): 0.76 *
3-O-Methylsphingosine (d18:1) (m28, high dose, Table 10a): 4.59 *
5-O-Methylsphingosine (d18:1) (m28, high dose, Table 10a): 4.37 *
Cysteine (m28, high dose, Table 10a): 0.92^
Lignoceric acid (C24:0) (m28, high dose, Table 10a): 2.16 *
Nervonic acid (C24:cis[15]1) (m28, high dose, Table 10a): 2.23 *
Oleic acid (C18:cis[9]1) (m28, high dose, Table 10a): 0.87^
alpha-Tocopherol (m28, high dose, Table 10a): 2.18 *
erythro-Sphingoside (d18:1) (m28, high dose, Table 10a): 3.44 *
threo-Sphingosine (d18:1) (m28, high dose, Table 10a): 4.28 *
Oleic acid (C18:cis[9]1) (m28, high dose, Table 10b): 0.87 *
Phosphatidylcholine (C16:0, C16:0) (m28, high dose, Table 10b): 0.92 *
Thyroxine (T4) (m28, high dose, Table 10b): 0.02 *
trans-4-Hydroxyproline (m28, high dose, Table 10b): 0.92^
1,5-Anhydrosorbitol, ratio versus control [1]: 0.81 *
3-O-Methylsphingosine (d18:1), ratio versus control [1]: 3.59 *
5-O-Methylsphingosine (d18:1), ratio versus control [1]: 3.41 *
18-Hydroxy-11-deoxycorticosterone, ratio versus control [1]: 0.38 *
Behenic acid (C22:0), ratio versus control [1]: 2.19 *
Ceramide (d18:1, C24:0), ratio versus control [1]: 2.58 *
Ceramide (d18:1, C24:1), ratio versus control [1]: 1.88 *
Coenzyme Q9, ratio versus control [1]: 1.23
Corticosterone, ratio versus control [1]: 0.38 *
Docosapentaenoic acid (C22:cis[7, 10, 13, 16, 19]5), ratio versus control [1]: 1.16
Glucose, ratio versus control [1]: 1.02
Glycerol, polar fraction, ratio versus control [1]: 0.74 *
Isoleucine, ratio versus control [1]: 0.98
Lignoceric acid (C24:0), ratio versus control [1]: 2.12 *
Linolenic acid (C18:cis[9, 12, 15]3), ratio versus control [1]: 0.7 *
Nervonic acid (C24:cis[15]1), ratio versus control [1]: 2.59 *
Phytosphingosine, ratio versus control [1]: 2 *
Sphingomyelin (d18:1, C16:0), ratio versus control [1]: 2.24 *
Threonic acid, ratio versus control [1]: 0.72 *
Tricosanoic acid (C23:0), ratio versus control [1]: 1.93 *
alpha-Tocopherol, ratio versus control [1]: 2.26 *
erythro-Sphingosine (d18:1), ratio versus control [1]: 2.91 *
threo-Sphingosine (d18:1), ratio versus control [1]: 2.91 *
trans-4-Hydroxyproline, ratio versus control [1]: 0.85 *
1,5-Anhydrosorbitol, ratio versus control [2]: 0.98
3-O-Methylsphingosine (d18:1), ratio versus control [2]: 3.98 *
5-O-Methylsphingosine (d18:1), ratio versus control [2]: 4.75 *
18-Hydroxy-11-deoxycorticosterone, ratio versus control [2]: 0.82
Behenic acid (C22:0), ratio versus control [2]: 3.12 *
Ceramide (d18:1, C24:0), ratio versus control [2]: 2.83 *
Ceramide (d18:1, C24:1), ratio versus control [2]: 2.41 *
Choline plasmalogen (C18, C20:4), ratio versus control [2]: 1.45 *
Coenzyme Q9, ratio versus control [2]: 1.54 *
Corticosterone, ratio versus control [2]: 1.47 *
Docosapentaenoic acid (C22:cis[7, 10, 13, 16, 19]5), ratio versus control [2]: 1.17
Glucose, ratio versus control [2]: 1.11
Glycerol, polar fraction, ratio versus control [2]: 0.64 *
Isoleucine, ratio versus control [2]: 1.18 *
Lignoceric acid (C24:0), ratio versus control [2]: 2.82 *
Linolenic acid (C18:cis[9, 12, 15]3), ratio versus control [2]: 0.8 *
Nervonic acid (C24:cis[15]1), ratio versus control [2]: 3 *
Phosphatidylcholine (C18:0, C22:6), ratio versus control [2]: 0.97
Phytosphingosine, ratio versus control [2]: 3.12 *
Sphingomyelin (d18:1, C16:0), ratio versus control [2]: 2.27 *
Sphingomyelin (d18:1, C24:0), ratio versus control [2]: 1.64 *
Threonic acid, ratio versus control [2]: 0.69 *
Tricosanoic acid (C23:0), ratio versus control [2]: 2.69 *
alpha-Tocopherol, ratio versus control [2]: 3.65 *
erythro-Sphingosine (d18:1), ratio versus control [2]: 3.71 *
threo-Sphingosine (d18:1), ratio versus control [2]: 3.72 *
trans-4-Hydroxyproline, ratio versus control [2]: 0.76 *
1,5-Anhydrosorbitol, ratio versus control [3]: 1.06
3-O-Methylsphingosine (d18:1), ratio versus control [3]: 4.59 *
5-O-Methylsphingosine (d18:1), ratio versus control [3]: 4.37 *
18-Hydroxy-11-deoxycorticosterone, ratio versus control [3]: 0.24 *
Behenic acid (C22:0), ratio versus control [3]: 3.13 *
Ceramide (d18:1, C24:0), ratio versus control [3]: 2.72 *
Ceramide (d18:1, C24:1), ratio versus control [3]: 1.89 *
Coenzyme Q9, ratio versus control [3]: 2.14 *
Corticosterone, ratio versus control [3]: 0.63
Glycerol, polar fraction, ratio versus control [3]: 0.71 *
Isoleucine, ratio versus control [3]: 1.38 *
Lignoceric acid (C24:0), ratio versus control [3]: 2.16 *
Linolenic acid (C18:cis[9, 12, 15]3), ratio versus control [3]: 0.7 *
Nervonic acid (C24:cis[15]1), ratio versus control [3]: 2.23 *
Phosphatidylcholine (C18:0, C22:6), ratio versus control [3]: 1.22 *
Phytosphingosine, ratio versus control [3]: 3.11 *
Sphingomyelin (d18:1, C16:0), ratio versus control [3]: 1.92 *
Sphingomyelin (d18:1, C24:0), ratio versus control [3]: 1.41 *
Threonic acid, ratio versus control [3]: 0.69 *
Tricosanoic acid (C23:0), ratio versus control [3]: 2.5 *
alpha-Tocopherol, ratio versus control [3]: 2.04 *
erythro-Sphingosine (d18:1), ratio versus control [3]: 3.44 *
threo-Sphingosine (d18:1), ratio versus control [3]: 4.28 *
trans-4-Hydroxyproline, ratio versus control [3]: 0.92 *
Docosapentaenoic acid (C22:cis[7, 10, 13, 16, 19]5), ratio versus control (rat, in vivo): 1.24 *
Glucose, ratio versus control (rat, in vivo): 1.06 *
Phosphatidylcholine (C18:0, C22:6), ratio versus control (rat, in vivo): 1.17 *
Sphingomyelin (d18:1, C24:0), ratio versus control (rat, in vivo): 1.35 *
Stearic acid (C18:0) (rat, in vivo): 1.16 *

OC(c1ccc(Cl)cc1)(c1cncnc1)c1ccccc1Cl (centres unmarked) [Fenarimol]
Glucose, ratio versus control [4]: 0.9
Lysophosphatidylcholine (C20:4), ratio versus control [4]: 0.99
Threonic acid, ratio versus control [4]: 1.37 *
Glucose, ratio versus control [5]: 0.9 *
Lysophosphatidylcholine (C20:4), ratio versus control [5]: 0.96 *
Threonic acid, ratio versus control [5]: 1.3 *
Glucose, ratio versus control [6]: 0.91 *
Lysophosphatidylcholine (C20:4), ratio versus control [6]: 0.97 *
Threonic acid, ratio versus control [6]: 1.34 *

C[C@]12CCC(=O)C(O)=C1CC[C@@H]1[C@@H]2CC[C@]2(C)C(=O)CC[C@@H]12 [Formestane]
Glucose, ratio versus control [4]: 0.8 *
Lysophosphatidylcholine (C20:4), ratio versus control [4]: 0.99 *
Threonic acid, ratio versus control [4]: 1.27 *
Glucose, ratio versus control [5]: 0.89 *
Lysophosphatidylcholine (C20:4), ratio versus control [5]: 0.97 *
Threonic acid, ratio versus control [5]: 1.24 *
Glucose, ratio versus control [6]: 0.9 *
Lysophosphatidylcholine (C20:4), ratio versus control [6]: 0.96 *
Threonic acid, ratio versus control [6]: 1.44 *
